Measurements as given in ChEMBL document CHEMBL1149733, “Antitumor agents, 130, Novel 4 beta-arylamino derivatives of 3',4'-didemethoxy-3',4'-dioxo-4-deoxypodophyllotoxin as potent inhibitors of human DNA topoisomerase II” (1992).

Experiments:
[1] = target: DNA topoisomerase 2-alpha (Homo sapiens) (UniProt P11388); test: Inhibition of strand rejoining activity of human DNA topoisomerase 2 assessed as protein-DNA complex formation at 10 uM by cell-based assay; parameters: scale not given: the % may be the effect or the level left
EMT6 = test: Ratio of cytotoxicity for normally oxygenated mouse EMT6 cells over hypoxic mouse EMT6 cells; assay type: functional
KB = test: Cytotoxicity against human KB cells assessed as reduction in cell number after 3 days; assay type: functional; conditions: 72 h, read-out: ID50 (the source's name)
[2] = target: DNA topoisomerase 2-alpha (Homo sapiens) (UniProt P11388); test: Inhibition of human DNA topoisomerase 2

DNA topoisomerase 2-alpha (Homo sapiens), sequence (P11388 whole entry): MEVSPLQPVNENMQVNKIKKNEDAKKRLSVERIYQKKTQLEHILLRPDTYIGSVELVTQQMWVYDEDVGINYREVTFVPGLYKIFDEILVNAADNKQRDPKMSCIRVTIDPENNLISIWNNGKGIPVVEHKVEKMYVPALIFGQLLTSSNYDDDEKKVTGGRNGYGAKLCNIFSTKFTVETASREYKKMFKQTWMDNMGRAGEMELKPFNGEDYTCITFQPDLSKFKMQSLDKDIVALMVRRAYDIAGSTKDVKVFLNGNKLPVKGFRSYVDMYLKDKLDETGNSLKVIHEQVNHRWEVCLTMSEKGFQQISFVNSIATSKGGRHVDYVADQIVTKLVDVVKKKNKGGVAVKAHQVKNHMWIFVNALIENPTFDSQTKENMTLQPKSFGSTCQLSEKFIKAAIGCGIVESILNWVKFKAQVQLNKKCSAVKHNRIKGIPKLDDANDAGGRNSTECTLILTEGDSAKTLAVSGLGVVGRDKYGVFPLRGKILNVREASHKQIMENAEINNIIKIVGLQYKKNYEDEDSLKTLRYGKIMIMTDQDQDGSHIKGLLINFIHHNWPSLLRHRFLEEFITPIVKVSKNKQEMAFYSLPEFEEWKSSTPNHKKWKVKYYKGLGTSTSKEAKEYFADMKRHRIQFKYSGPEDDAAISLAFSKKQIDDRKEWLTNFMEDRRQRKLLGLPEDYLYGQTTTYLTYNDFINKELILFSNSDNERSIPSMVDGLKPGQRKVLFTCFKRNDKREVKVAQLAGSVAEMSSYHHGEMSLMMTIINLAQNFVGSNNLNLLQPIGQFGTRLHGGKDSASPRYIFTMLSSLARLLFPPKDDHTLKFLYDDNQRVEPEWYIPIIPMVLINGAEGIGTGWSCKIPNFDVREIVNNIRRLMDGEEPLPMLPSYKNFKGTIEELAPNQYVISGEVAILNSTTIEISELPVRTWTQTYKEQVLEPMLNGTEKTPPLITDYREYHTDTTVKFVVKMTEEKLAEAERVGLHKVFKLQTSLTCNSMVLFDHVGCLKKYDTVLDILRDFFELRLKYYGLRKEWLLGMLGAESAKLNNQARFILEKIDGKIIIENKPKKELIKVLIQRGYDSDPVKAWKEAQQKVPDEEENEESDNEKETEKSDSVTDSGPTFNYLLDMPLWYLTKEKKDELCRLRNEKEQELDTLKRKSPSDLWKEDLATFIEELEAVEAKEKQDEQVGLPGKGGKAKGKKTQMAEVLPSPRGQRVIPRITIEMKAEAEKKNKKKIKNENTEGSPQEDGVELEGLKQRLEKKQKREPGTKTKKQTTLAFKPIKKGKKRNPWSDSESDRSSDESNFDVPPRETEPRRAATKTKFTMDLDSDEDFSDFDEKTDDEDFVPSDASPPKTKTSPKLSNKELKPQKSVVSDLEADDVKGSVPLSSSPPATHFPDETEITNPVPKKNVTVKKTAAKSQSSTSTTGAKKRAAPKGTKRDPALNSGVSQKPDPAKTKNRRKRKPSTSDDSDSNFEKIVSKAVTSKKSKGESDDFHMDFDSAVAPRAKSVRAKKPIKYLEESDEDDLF

| Compound | Activity [1] | Ratio (EMT6) | IC50 (KB) | ID50 [2] |
| --- | --- | --- | --- | --- |
| COc1cc([C@@H]2c3cc4c(cc3[C@@H](O[C@@H]3O[C@@H]5CO[C@@H](C)O[C@H]5[C@H](O)[C@H]3O)[C@H]3COC(=O)[C@H]23)OCO4)cc(OC)c1O [ETOPOSIDE] | 100% | 30 | – | – |
| COc1cc([C@@H]2c3cc4c(cc3[C@@H](Nc3ccc([N+](=O)[O-])cc3)[C@H]3COC(=O)[C@H]23)OCO4)cc(OC)c1O | 323% | – | 0.5 µM | 10 µM |
| COC(=O)c1ccc(N[C@@H]2c3cc4c(cc3[C@@H](c3cc(OC)c(O)c(OC)c3)[C@H]3C(=O)OC[C@@H]32)OCO4)cc1O | 129% | – | 5.8 µM | 50 µM |
| COc1cc([C@@H]2c3cc4c(cc3[C@@H](Nc3ccc(F)cc3)[C@H]3COC(=O)[C@H]23)OCO4)cc(OC)c1O | 2.13% | – | 0.2 µM | 5 µM |
